Marks after values point to notes of the source that are not given here.
Assays:
[1] = tested on: calcium chloride arrhythmia; test: calcium chloride arrhythmia in concious rats; assay type: in vivo; details: concious rats, given 2 min prior calcium chloride 250-300 mg/kg i.v.
Procedure: In these experiments the outbred concious rats 180-200 g of weight were injected with 10% solution of calcium chloride in tail vein at dose range of 250-300 mg/kg.

[2] = after i.v. injection
[3] = tested on: ventricular fibrillations; test: ventricular fibrillation, 7-min occlusion and reperfusion of coronary artery in anesthetized rats; assay type: in vivo
Procedure: The experiments were conducted in male rats weighing 180-240 g and anesthetized with nembutal (60 mg/kg i.v.) with open chest and artificial respiration. The occlusion of the left coronary artery was performed 1-2 min after experiment beginning with following reperfusion after 7 min. During this period time according to literature data [Krzeminski T., Grzyb J., Kurcok A., Brus R.: Pol.J.Pharmacol., 1992, 44, Suppl., p.169-170] the maximum number of ventricular fibrillations (70-100%) were registered. The ECG in the 2nd standard lead was recorded in “Mingograph-81”. The number of ventricular fibrillations during occlusion and reperfusion periods, the life menacing arrhythmia (fibrillation+paroxysmal ventricular tachycardia) and total number of arrhythmias were calculated. The known antiarrhythmic drug bonnecor was used as the reference agent [Grigorieva E. K., Gorbunova V. V. in: “New antiarrhythmic drug—bonnecor (the pharmacology and clinical usage)”, M., 1993, p.64-67]. The compounds were injected i.v. at the following doses: bonnecor—1,0 mg/kg, compound IX—2,0 mg/kg, compound XX—1,0 mg/kg. The control animals were administered with the equivalent volume of physiological solution (1,0 ml/kg). 4 series of experiments were carried out in 80 rats. The results were assessed according to the method of point scale: the absence of arrhythmia—0 point, extrasystole—1 point, paroxysmal ventricular tachycardia—2 points, ventricular fibrillation—3 points, fibrillation observed during the occlusion of coronary vessel—4 points. For statistical analysis the Fisher's exact probability and Wilconson's methods were used.
[Krzeminski T., Grzyb J., Kurcok A., Brus R.: Pol.J.Pharmacol., 1992, 44, Suppl., p.169-170] have shown that 7 min occlusion with following reperfusion of coronary artery in anesthetized rats produced the ventricular fibrillation (68-100%). Defibrotide and prostacycline decreased the number of fibrillations. We have studied the antifibrillator activity of some derivatives of 2-mercaptbenzimidazole in this model with disturbances of heart rhythm. Bonnecor (1,0 mg/kg) was used as the reference drug. It is well known that this agent produces apronouncedantifibrillatoryactivity [Grigorieva E. K., Gorbunova V. V. in: “New antiarrhythmic drug-bonnecor (the pharmacology and clinical usage)”, M., 1993, p.64-67].

aconitine arrhythmia = test: animal or person; assay type: in vivo, rats
Procedure: Aconitine arrhythmia. The aconitine arrhythmia was induced in concious rats weighing 180-200 g by the injection in tail vein of the aconitine sulfate solution at dose range of […]. […] The tested compounds were administered i.v. 3 min prior aconitine injection. The ED50 value was calculated according to Litchfield's method.

What does the source list for CCOC(=O)Nc1ccc2c(c1)N(C(=O)CN(C)C)c1ccccc1CC2 [Bonnecor, bonnecor, reference compound]?
Calcium chloride arrhythmia ED50 (mean effective dose) [1]: 1.6 mg/kg; Acute toxicity LD50 [2]: 11.5 mg/kg; antifibrillatory effect, in words ([3]; anesthetized rats i.v., bonnecor 1,0, IX 2,0, X (printed) 1,0 mg/kg): decreased the number of both the ventricular fibrillations and lethality hazardous arrhythmia; Number of VF (ventricular fibrillations) ([3]; anesthetized rats, 1 mg/kg i.v., 18 animals, control 15 of 24): 6*; Number of LHA (lethality hazardous arrhythmia) ([3]; anesthetized rats, 1 mg/kg i.v., 18 animals, control 22 of 24): 12*; Total numbers of arrhyt. ([3]; anesthetized rats, 1 mg/kg i.v., 18 animals, control 24 of 24): 16; Severity of arrhythmias ([3]; anesthetized rats, 1 mg/kg i.v., 18 animals, control 66): 36* points; LD50/ED50 (antiarrhythmic index) (aconitine arrhythmia; LD50 i.v. / ED50 aconitine arrhythmia): 50; Aconitine arrhythmia ED50 (aconitine arrhythmia; concious rats, i.v. 3 min prior aconitine): 0.23 mg/kg

— US6376666B1 (Nauchno-Issledovatelsky Institut Farmakologii Rossiiskoi …, priority 1994, dated 2002)
